Values joined by “and” are separate entries in the source; they are usually repeats but may differ in a detail not shown here. Equal values may be shown once. Numbered stars: 1 amine (or outer) side, 2 acyl side, 3 side chain; on linkers, the order of the positions; unused ones are H or OH. Square brackets hold non-standard residues; d marks the D form. Peptide text beside a SMILES is read from it. * marks the point of attachment. ξ: configuration not given here. pY = N[C@@H](Cc1ccc(OP(=O)(O)O)cc1)C(=O)O; NH(1R-phenylethyl) = C[C@@H](N*)c1ccccc1; X2 = O=C([C@H]1CCCN([*:1])C1)[*:2]; X3 = O=C(CN1CCN([*:1])CC1)[*:2]; Cha = N[C@@H](CC1CCCCC1)C(=O)O; Ile(3ξ) = CCC(C)[C@H](N)C(=O)O; Thr(3ξ) = CC(O)[C@H](N)C(=O)O; αMeP = C[C@@]1(C(=O)O)CCCN1; Nle = CCCC[C@H](N)C(=O)O; Pyrrolidide = C1CCN(*)C1; Bz = O=C(c1ccccc1)*
target: Signal transducer and activator of transcription 3 (Mus musculus, UniProt P42227); assay: Fluorescence Polarization Assay; settings: not given
Procedure: Fluorescence polarization (FP) binding assay is utilizing the intrinsic property of the fluorescent probe, which will have low polarization value when free in solution. On binding to a target, the polarization of the probe will increase. Reaction mixtures of full length STAT3 alpha and the probe were placed in wells of a 96-well microtiter plate. The test peptide solution was added to each well. Fluorescence polarization was then read in a Tecan Polarian plate reader. The IC50 values were obtained from nonlinear regression analysis in the one-site competition mode. Peptides were assayed three times using three separate Stat3-probe preparations. IC50 values are reported as the mean of three IC50 values +/- the standard deviation.

Signal transducer and activator of transcription 3, sequence (P42227 whole entry): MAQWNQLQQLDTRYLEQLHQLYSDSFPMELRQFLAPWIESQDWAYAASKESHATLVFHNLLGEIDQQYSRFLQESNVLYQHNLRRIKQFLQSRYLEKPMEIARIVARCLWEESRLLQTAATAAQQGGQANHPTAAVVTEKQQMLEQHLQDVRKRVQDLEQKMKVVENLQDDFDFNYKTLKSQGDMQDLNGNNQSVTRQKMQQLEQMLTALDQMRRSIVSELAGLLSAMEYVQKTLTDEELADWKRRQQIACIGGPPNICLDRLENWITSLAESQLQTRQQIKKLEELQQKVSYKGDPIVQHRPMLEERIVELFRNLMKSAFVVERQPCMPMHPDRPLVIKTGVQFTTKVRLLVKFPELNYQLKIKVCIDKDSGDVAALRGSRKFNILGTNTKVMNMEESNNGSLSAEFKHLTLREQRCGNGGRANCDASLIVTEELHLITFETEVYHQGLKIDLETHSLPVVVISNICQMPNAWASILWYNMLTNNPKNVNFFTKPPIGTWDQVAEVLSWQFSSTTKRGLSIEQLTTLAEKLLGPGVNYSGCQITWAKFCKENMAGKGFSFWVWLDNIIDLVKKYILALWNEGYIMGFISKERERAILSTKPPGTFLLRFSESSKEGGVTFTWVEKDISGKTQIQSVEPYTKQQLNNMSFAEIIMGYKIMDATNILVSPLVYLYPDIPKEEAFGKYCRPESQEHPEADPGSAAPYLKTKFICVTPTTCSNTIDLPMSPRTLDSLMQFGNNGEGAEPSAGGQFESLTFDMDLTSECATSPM

Question: How did the IC50 turn out when CC(=O)N[C@@H](Cc1ccc(OP(=O)(O)O)cc1)C(=O)N[C@@H](CC(C)C)C(=O)N1CCC[C@H]1C(=O)N[C@@H](CCC(N)=O)C(=O)N1CCCC1 [4-[(2S)-2-{[(2S)-1-[(2S)-2-{[(2S)-4-carbamoyl-1-oxo-1-(pyrrolidin-1-yl)butan-2-yl]carbamoyl}pyrrolidin-1-yl]-4-methyl-1-oxopentan-2-yl]carbamoyl}-2-acetamidoethyl]phenoxyphosphonic acid] (Ac-[pY]LPQ-Pyrrolidide) was run?
Answer: 2.11 µM

Question: Which IC50 does the source give for CC(=O)N[C@@H](Cc1ccc(OP(=O)(O)O)cc1)C(=O)N[C@@H](CC(C)C)C(=O)N1CCC[C@H]1C(=O)N[C@@H](CCC(N)=O)C(=O)N[C@H](C)c1ccccc1 [4-[(2S)-2-{[(2S)-1-[(2S)-2-{[(1S)-3-carbamoyl-1-{[(1R)-1-phenylethyl]carbamoyl}propyl]carbamoyl}pyrrolidin-1-yl]-4-methyl-1-oxopentan-2-yl]carbamoyl}-2-acetamidoethyl]phenoxyphosphonic acid] (Ac-[pY]LPQ-{NH(1R-phenylethyl)}) here?
Answer: 0.801 µM

Question: CC(=O)N[C@@H](Cc1ccc(OP(=O)(O)O)cc1)C(=O)N[C@@H](CC(C)C)C(=O)N1CCC[C@H]1C(=O)N[C@@H](CCC(N)=O)C(=O)O [(2S)-4-carbamoyl-2-{[(2S)-1-[(2S)-2-[(2S)-2-acetamido-3-[4-(phosphonooxy)phenyl]propanamido]-4-methylpentanoyl]pyrrolidin-2-yl]formamido}butanoic acid] (Ac-[pY]LPQ-OH) was tested. Which IC50 did it give?
Answer: 0.748 µM

same assay, conditions: pH 7.5; 22 °C

Question: CC(=O)N[C@@H](Cc1ccc(OP(=O)(O)O)cc1)C(=O)N[C@@H](CC(C)C)C(=O)N1CCC[C@H]1C(=O)N[C@@H](CCC(N)=O)C(N)=O (Ac-[pY]LPQ-NH2) was tested. Which IC50 did it give?
Answer: 0.856 µM

Question: Which IC50 does the source give for CC(=O)N[C@@H](Cc1ccc(OP(=O)(O)O)cc1)C(=O)N[C@@H](CC(C)C)C(=O)N1CCC[C@H](C(=O)N[C@@H](CCC(N)=O)C(=O)N[C@H](C(N)=O)C(C)O)C1 (stereo partly drawn) [23, Ac-pTyr-Leu-Nip-Gln-Thr-NH2-2] (Ac-[pY]L[X2]Q[Thr(3ξ)]-NH2) here?
Answer: 38.6 µM and 33.1 µM

Question: For CC(C)C[C@H](NC(=O)[C@H](Cc1ccc(OP(=O)(O)O)cc1)NC(=O)c1ccccc1)C(=O)N1CCC[C@H]1C(=O)N[C@@H](CCC(N)=O)C(=O)N[C@H](C(N)=O)C(C)O (stereo partly drawn) [4-[(2S)-2-{[(2S)-1-[(2S)-2-{[(1S)-3-carbamoyl-1-{[(1S,2S)-1-carbamoyl-2-hydroxypropyl]carbamoyl}propyl]carbamoyl}pyrrolidin-1-yl]-4-methyl-1-oxopentan-2-yl]carbamoyl}-2-(phenylformamido)ethyl]phenoxyphosphonic acid] (Bz-[pY]LPQ[Thr(3ξ)]-NH2), which IC50 is on record?
Answer: 0.814 µM

Question: CC(=O)N[C@@H](Cc1ccc(OP(=O)(O)O)cc1)C(=O)N[C@@H](CC1CCCCC1)C(=O)N1CCC[C@H]1C(=O)N[C@@H](CCC(N)=O)C(=O)N[C@H](C(N)=O)C(C)O (stereo partly drawn) [4-[(2S)-2-{[(2S)-1-[(2S)-2-{[(1S)-3-carbamoyl-1-{[(1S,2S)-1-carbamoyl-2-hydroxypropyl]carbamoyl}propyl]carbamoyl}pyrrolidin-1-yl]-3-cyclohexyl-1-oxopropan-2-yl]carbamoyl}-2-acetamidoethyl]phenoxyphosphonic acid] (Ac-[pY][Cha]PQ[Thr(3ξ)]-NH2) was tested. Which IC50 did it give?
Answer: 0.91 µM

Question: How did the IC50 turn out when CC(=O)N[C@@H](Cc1ccc(OP(=O)(O)O)cc1)C(=O)N[C@@H](CC(C)C)C(=O)N1CCC[C@@]1(C)C(=O)N[C@@H](CCC(N)=O)C(=O)N[C@H](C(N)=O)C(C)O (stereo partly drawn) [4-[(2S)-2-{[(2S)-1-[(2S)-2-{[(1S)-3-carbamoyl-1-{[(1S,2S)-1-carbamoyl-2-hydroxypropyl]carbamoyl}propyl]carbamoyl}-2-methylpyrrolidin-1-yl]-4-methyl-1-oxopentan-2-yl]carbamoyl}-2-acetamidoethyl]phenoxyphosphonic acid] (Ac-[pY]L[αMeP]Q[Thr(3ξ)]-NH2) was run?
Answer: 1.87 µM

Question: Which IC50 does the source give for CC(=O)N[C@@H](Cc1ccc(OP(=O)(O)O)cc1)C(=O)N[C@@H](CC(C)C)C(=O)N1CCN(CC(=O)N[C@@H](CCC(N)=O)C(=O)N[C@H](C(N)=O)C(C)O)CC1 (stereo partly drawn) [4-[(2S)-2-{[(2S)-1-[4-({[(1S)-3-carbamoyl-1-{[(1S,2S)-1-carbamoyl-2-hydroxypropyl]carbamoyl}propyl]carbamoyl}methyl)piperazin-1-yl]-4-methyl-1-oxopentan-2-yl]carbamoyl}-2-acetamidoethyl]phenoxyphosphonic acid] (Ac-[pY]L[X3]Q[Thr(3ξ)]-NH2) here?
Answer: 57.1 µM

Question: With CC(=O)N[C@@H](Cc1ccc(OP(=O)(O)O)cc1)C(=O)N[C@@H](CC(C)C)C(=O)N1CCC[C@H]1C(=O)N[C@@H](CCC(=O)N(C)C)C(=O)N[C@H](C(N)=O)C(C)O (stereo partly drawn) [4-[(2S)-2-{[(2S)-1-[(2S)-2-{[(1S)-1-{[(1S,2S)-1-carbamoyl-2-hydroxypropyl]carbamoyl}-3-(dimethylcarbamoyl)propyl]carbamoyl}pyrrolidin-1-yl]-4-methyl-1-oxopentan-2-yl]carbamoyl}-2-acetamidoethyl]phenoxyphosphonic acid] (Ac-[pY]LPE(NMe2)[Thr(3ξ)]-NH2) as the compound, how does the IC50 read?
Answer: 80 µM

Question: How did the IC50 turn out when CNC(=O)CC[C@H](NC(=O)[C@@H]1CCCN1C(=O)[C@H](CC(C)C)NC(=O)[C@H](Cc1ccc(OP(=O)(O)O)cc1)NC(C)=O)C(=O)N[C@H](C(N)=O)C(C)O (stereo partly drawn) [4-[(2S)-2-{[(2S)-1-[(2S)-2-{[(1S)-1-{[(1S,2S)-1-carbamoyl-2-hydroxypropyl]carbamoyl}-3-(methylcarbamoyl)propyl]carbamoyl}pyrrolidin-1-yl]-4-methyl-1-oxopentan-2-yl]carbamoyl}-2-acetamidoethyl]phenoxyphosphonic acid] (Ac-[pY]LPE(NHMe)[Thr(3ξ)]-NH2) was run?
Answer: 18.1 µM

Question: CC(=O)N[C@@H](Cc1ccc(OP(=O)(O)O)cc1)C(=O)N[C@H](C(=O)N1CCC[C@H]1C(=O)N[C@@H](CCC(N)=O)C(=O)N[C@H](C(N)=O)C(C)O)C(C)C (stereo partly drawn) [4-[(2S)-2-{[(2S)-1-[(2S)-2-{[(1S)-3-carbamoyl-1-{[(1S,2S)-1-carbamoyl-2-hydroxypropyl]carbamoyl}propyl]carbamoyl}pyrrolidin-1-yl]-3-methyl-1-oxobutan-2-yl]carbamoyl}-2-acetamidoethyl]phenoxyphosphonic acid] (Ac-[pY]VPQ[Thr(3ξ)]-NH2) was tested. Which IC50 did it give?
Answer: 1.54 µM

Question: CCCC[C@H](NC(=O)[C@H](Cc1ccc(OP(=O)(O)O)cc1)NC(C)=O)C(=O)N1CCC[C@H]1C(=O)N[C@@H](CCC(N)=O)C(=O)N[C@H](C(N)=O)C(C)O (stereo partly drawn) [4-[(2S)-2-{[(2S)-1-[(2S)-2-{[(1S)-3-carbamoyl-1-{[(1S,2S)-1-carbamoyl-2-hydroxypropyl]carbamoyl}propyl]carbamoyl}pyrrolidin-1-yl]-1-oxohexan-2-yl]carbamoyl}-2-acetamidoethyl]phenoxyphosphonic acid] (Ac-[pY][Nle]PQ[Thr(3ξ)]-NH2) was tested. Which IC50 did it give?
Answer: 0.717 µM

Question: Which IC50 does the source give for CCC(C)[C@H](NC(=O)[C@H](Cc1ccc(OP(=O)(O)O)cc1)NC(C)=O)C(=O)N1CCC[C@H]1C(=O)N[C@@H](CCC(N)=O)C(=O)N[C@H](C(N)=O)C(C)O (stereo partly drawn) [4-[(2S)-2-{[(2S)-1-[(2S)-2-{[(1S)-3-carbamoyl-1-{[(1S)-1-carbamoyl-2-hydroxypropyl]carbamoyl}propyl]carbamoyl}pyrrolidin-1-yl]-3-methyl-1-oxopentan-2-yl]carbamoyl}-2-acetamidoethyl]phenoxyphosphonic acid] (Ac-[pY][Ile(3ξ)]PQ[Thr(3ξ)]-NH2) here?
Answer: 1.07 µM
